Measured values as given in patent US20040122001A1, “Pharmaceutical compounds” (priority 2000, published 2004).

melting point [°C]	SMILES
136 to 140	O=C(NCCO)c1ccc2c(c1)CCCN2CCN1CC=C(c2c[nH]c3cc(F)ccc23)CC1
121 to 125	CNC(=O)c1ccc2c(c1)CCCN2CCN1CC=C(c2c[nH]c3cc(F)ccc23)CC1
184 to 185.6	Fc1ccc2c(C3=CCN(CCC4OCCc5cc(Br)ccc54)CC3)c[nH]c2c1 (stereo not shown)
130 to 133	NC(=O)c1ccc2c(c1)CCCN2CCN1CC=C(c2c[nH]c3cc(F)ccc23)CC1
